Measured values as given in patent US12622968B2, “Formulation for oral delivery of proteins, peptides and small molecules with poor permeability” (R.P. Scherer Technologies, LLC, priority 2019, dated 2026).
Read-outs that look alike come from different tables or passages of the source.

Experiment: Single dose oral capsule pharmacokinetics of BHV-3500 in dogs (plasma LC-MS/MS)
Type: in vivo, beagle dogs
Settings: female, beagle, dog, plasma; for Tmax: read-out: Tmax; for concentration at 1 h: 1 h post-dose; for concentration at 1 h / concentration at 2 h / concentration at 4 h: read-out: BHV-3500 Concentration in Dog Plasma; for concentration at 2 h: 2 h post-dose; for Cmax: read-out: Cmax; for concentration at 4 h: 4 h post-dose; for AUC(0-t): read-out: AUC0-4 hr
Protocol: The pharmacokinetics (PK) of BHV-3500 after a single oral capsule of BHV-3500 in dogs were investigated.
After each dose, blood samples (approximately 3 mL from the jugular vein) for determination of plasma levels of BHV-3500 were obtained from of each dog at six time points (pre-dose; 15, 30, and 60 minutes and 2 and 4 hours post-dose. EDTA was used as the anticoagulant. Plasma samples were frozen at approximately −70′C until analyzed.
For the determination of BHV-3500 in plasma, a 50 μL aliquot from each sample was transferred into the appropriate well of a 96-well plate to which 10 μL of 50% acetonitrile (ACN) in water was added, followed by 250 μL of internal standard solution (10 ng/mL BHV-3500-d8 in ACN). After sealing the plate and vortexing for approximately 5 minutes, the plate was centrifuged at 4,000 rpm for 10 minutes at 4±4° C. A portion (100 μL) of the resulting supernatant was transferred to into the appropriate well (containing 300 μL 0.15% formic acid in water) of another 96-well plate. This plate was sealed and its contents mixed prior to instrumental analysis.
Freshly prepared BHV-3500 standard curves and QC samples were analyzed along with the study samples. Instrument calibrators were prepared by adding 10 μL of a stock BHV-3500 solution to 50 μL of blank dog plasma. Blank dog plasma was sourced from BioIVT (Hicksville, NY) and stored frozen at −20° C. Nominal calibrator concentrations ranged from 2.00 to 200 ng/mL. QC samples were prepared at concentrations of 6.00, 50.0 and 150 ng/mL. Calibrators and QC samples were processed for analysis following the extraction procedure described above.
Calibrator, QC and study samples were analyzed under LC-S/MS instrument conditions detailed in Table 7.
Calibration curves were calculated from the linear regression (weighting factor of 1/x2) of the analyte to internal standard peak area ratios versus the analyte concentrations. Concentrations of analyte in the samples were determined using the peak area ratios and the regression parameters of the calibration curves.
Individual animal plasma BHV-3500 concentration data at scheduled (nominal) sampling times were analyzed using the non-compartmental model f r extravascular administration with Phoenix WinNonlin software (Version 8.1; Certara, Princeton, NJ).
Elimination rate constant values (λz) were calculated by log-linear regression on data points of the terminal phase (using Phoenix WinNonlin's Best Fit Lambda Z Calculation Method option) when allowed by the data; the plasma elimination half-life (t1/2) was calculated as ln(2)/λz. Area under the plasma concentration-time curve values from time zero to the concentration at the 4 hour time point (AUC0-4 hr) were calculated by the linear-up/log-down trapezoidal rule.
Nominal dose levels were used for PK analysis. The PK parameters listed below were evaluated (as applicable and when allowed by the data). • Elimination half-life (t1/2) • Time of occurrence of maximum plasma concentration (Tmax) • Maximum plasma concentration (Cmax) • Area under plasma concentration-time curve [0 to the 4 hour time point; AUC0-4hr]

[1] = po, 50 mg, Group 4, oral capsule, 50 mg BHV-3500, no vehicle, average
[2] = po, 50 mg, Group 4, oral capsule, 50 mg BHV-3500, no vehicle, individual dogs
[3] = po, 50 mg, Group 5, oral capsule, 50 mg BHV-3500 in 900 mg vehicle of Formulation 2 (SEDDS excipients), average
[4] = po, 50 mg, Group 6, oral capsule, 50 mg BHV-3500 in 25 mg DDM, average
[5] = po, 50 mg, Group 6, oral capsule, 50 mg BHV-3500 in 25 mg DDM, individual dogs
[6] = Group 2, oral capsule, 20 mg BHV-3500 in 900 mg vehicle of Formulation 2 (SEDDS excipients), individual dogs

Work on `Cc1cc(C[C@@H](NC(=O)N2CCC(c3cc4ccccc4[nH]c3=O)CC2)C(=O)N2CCN(C3CCN(C)CC3)CC2)cc2cn[nH]c12` [BHV-3500, (R)—N-(3-(7-methyl-1H indazol-5-yl)-1-(4-(1-methylpiperidin-4-yl)piperazin-1-yl)-1-oxopropan-2-yl)-4-(2-oxo-1,2 dihydroquinolin-3-yl)piperidine-1-carboxamide] yielded a Tmax (po, 20 mg, Group 3, oral capsule, 20 mg BHV-3500 in 25 mg DDM, median) of 2 h, a concentration at 1 h [1] of 3.35 ng/mL and a concentration at 1 h [2] of 2.25 ng/mL. The concentration at 2 h [1] was 6.18 ng/mL, the concentration at 2 h [2] was 7.57 ng/mL and the Cmax [1] was 6.18 ng/mL. The Cmax [2] was 7.57 ng/mL, the Tmax [2] was 2 h and the Tmax (po, 50 mg, Group 4, oral capsule, 50 mg BHV-3500, no vehicle, median) was 2 h. It also gave a concentration at 1 h [3] of 11.5 ng/mL, a concentration at 2 h [3] of 40.6 ng/mL and a concentration at 4 h [3] of 7.97 ng/mL. The AUC(0-t) [3] was 70.6 ng·h/mL, the Cmax [3] was 40.6 ng/mL and the Tmax (po, 50 mg, Group 5, oral capsule, 50 mg BHV-3500 in 900 mg vehicle of Formulation 2 (SEDDS excipients), individual dogs) was 2 h. It also gave a Tmax (po, 50 mg, Group 5, oral capsule, 50 mg BHV-3500 in 900 mg vehicle of Formulation 2 (SEDDS excipients), median) of 2 h, a concentration at 1 h [4] of 2.42 ng/mL and a concentration at 1 h [5] of 2.42 ng/mL. For the same compound, the concentration at 2 h [4] was 6.05 ng/mL, the concentration at 2 h [5] was 6.05 ng/mL and the concentration at 4 h [4] was 8.67 ng/mL. For the same compound, the concentration at 4 h [5] was 12 ng/mL, the AUC(0-t) [4] was 17.3 ng·h/mL and the Cmax [4] was 6.59 ng/mL. For the same compound, the Tmax (po, 50 mg, Group 6, oral capsule, 50 mg BHV-3500 in 25 mg DDM, median) was 4 h, the concentration at 1 h [6] was 2.57 ng/mL and the concentration at 4 h [6] was 3.09 ng/mL. The concentration at 4 h (Group 6, oral capsule, 50 mg BHV-3500 in 25 mg DDM, individual dogs) was 5.34 ng/mL.
